The test system of this data set is CCRIS mutagenicity, Ames/micronucleus/aberration tests. In words: CCRIS mutagenicity studies.
Where [1] appears, read: Test System: AMES SALMONELLA TYPHIMURIUM, Strain/Indicator: TA1537, Metabolic Activation: NONE, Method: STANDARD PLATE.

The values that follow come from PubChem BioAssay AID1259407 (Chemical Carcinogenesis Research Information System (CCRIS), 2018).

SMILES strings stand for the structures. Entries after “also recorded” stand apart in the source; their conditions may differ. Activity calls are given as the source filed them. No rule for the calls is given here.

Consider `CCCN(CCCC(=O)O)N=O`, for which, where the note is “Test System: AMES SALMONELLA TYPHIMURIUM, Strain/Indicator: TA1535, Metabolic Activation: RAT, LIVER, S-9, KC500 OR PHENOBARBITAL, Method: LIQUID SUSPENSION”, the mutagenic call is “active; positive”.

Regarding `Clc1ccc(C(Cl)c2ccccn2)cc1` (stereo not given), the mutagenic call by setting is: (End Point: IN VITRO CHROMOSOMAL ABERRATIONS, Test System: CHL CELLS, Metabolic Activation: NONE) “inactive; negative; test chemical precipitated at 0.2 mg/ml; toxic at 0.3 mg/ml (metaphase; also recorded: active; positive (structural changes); 0.30 mg/ml was toxic; metaphase cell division not”; (End Point: IN VITRO CHROMOSOMAL ABERRATIONS, Test System: CHL CELLS, Metabolic Activation: RAT, LIVER, S-9, SODIUM PHENOBARBITAL AND 5,6-BENZOFLAVONE) “active; positive (structural changes); test chemical precipitated at 2 highest of 4 dose”.

Regarding `CC1(C)Cc2cccc(O)c2O1`, the mutagenic call (End Point: IN VIVO MICRONUCLEUS, Test System: BONE MARROW POLYCHROMATIC ERYTHROCYTES, Species: MOUSE, Strain/Sex: KM/MALE, FEMALE, Route: IP INJECTION) is “inactive; negative”.

Regarding `CCCCCCCCO`, the mutagenic call by setting is: (Test System: AMES SALMONELLA TYPHIMURIUM, Strain/Indicator: TA98, Metabolic Activation: NONE, Method: PREINCUBATION) “inactive; negative”; (Test System: AMES SALMONELLA TYPHIMURIUM, Strain/Indicator: TA98, Metabolic Activation: RAT, LIVER, S-9, PHENOBARBITAL AND BETA-NAPHTHOFLAVONE, Method: PREINCUBATION) “inactive; negative”; (Test System: AMES SALMONELLA TYPHIMURIUM, Strain/Indicator: TA100, Metabolic Activation: NONE, Method: PREINCUBATION) “inactive; negative”; (Test System: AMES SALMONELLA TYPHIMURIUM, Strain/Indicator: TA100, Metabolic Activation: RAT, LIVER, S-9, PHENOBARBITAL AND BETA-NAPHTHOFLAVONE, Method: PREINCUBATION) “inactive; negative”; (Test System: AMES SALMONELLA TYPHIMURIUM, Strain/Indicator: TA100, Metabolic Activation: RAT, LIVER, S-9, SODIUM PHENOBARBITAL AND 5,6-BENZOFLAVONE, Method: PREINCUBATION) “inactive; negative”; (Test System: AMES SALMONELLA TYPHIMURIUM, Strain/Indicator: TA102, Metabolic Activation: NONE, Method: PREINCUBATION) “inactive; negative”. Also, the mutagenic call (Test System: AMES SALMONELLA TYPHIMURIUM, Strain/Indicator: TA102, Metabolic Activation: RAT, LIVER, S-9, PHENOBARBITAL AND BETA-NAPHTHOFLAVONE, Method: PREINCUBATION) is “inactive; negative”; the mutagenic call (Test System: AMES SALMONELLA TYPHIMURIUM, Strain/Indicator: TA102, Metabolic Activation: RAT, LIVER, S-9, SODIUM PHENOBARBITAL AND 5,6-BENZOFLAVONE, Method: PREINCUBATION) was “inactive; negative”; the mutagenic call (Test System: AMES SALMONELLA TYPHIMURIUM, Strain/Indicator: TA104, Metabolic Activation: NONE, Method: PREINCUBATION) was “inactive; negative”; the mutagenic call (Test System: AMES SALMONELLA TYPHIMURIUM, Strain/Indicator: TA104, Metabolic Activation: RAT, LIVER, S-9, PHENOBARBITAL AND BETA-NAPHTHOFLAVONE, Method: PREINCUBATION) was “inactive; negative”; the mutagenic call (Test System: AMES SALMONELLA TYPHIMURIUM, Strain/Indicator: TA104, Metabolic Activation: RAT, LIVER, S-9, SODIUM PHENOBARBITAL AND 5,6-BENZOFLAVONE, Method: PREINCUBATION) was “inactive; negative”; the mutagenic call (Test System: AMES SALMONELLA TYPHIMURIUM, Strain/Indicator: TA1535, Metabolic Activation: NONE, Method: PREINCUBATION) is “inactive; negative”. The mutagenic call by setting is: (Test System: AMES SALMONELLA TYPHIMURIUM, Strain/Indicator: TA1535, Metabolic Activation: RAT, LIVER, S-9, PHENOBARBITAL AND BETA-NAPHTHOFLAVONE, Method: PREINCUBATION) “inactive; negative”; (Test System: AMES SALMONELLA TYPHIMURIUM, Strain/Indicator: TA1537, Metabolic Activation: NONE, Method: PREINCUBATION) “inactive; negative”; (Test System: AMES SALMONELLA TYPHIMURIUM, Strain/Indicator: TA1537, Metabolic Activation: RAT, LIVER, S-9, PHENOBARBITAL AND BETA-NAPHTHOFLAVONE, Method: PREINCUBATION) “inactive; negative”; (Test System: E. COLI, Strain/Indicator: WP2UVRA/PKM101, Metabolic Activation: NONE, Method: PREINCUBATION) “inactive; negative”; (Test System: E. COLI, Strain/Indicator: WP2UVRA/PKM101, Metabolic Activation: RAT, LIVER, S-9, PHENOBARBITAL AND BETA-NAPHTHOFLAVONE, Method: PREINCUBATION) “inactive; negative”; (Test System: E. COLI, Strain/Indicator: WP2UVRA/PKM101, Metabolic Activation: RAT, LIVER, S-9, SODIUM PHENOBARBITAL AND 5,6-BENZOFLAVONE, Method: PREINCUBATION) “inactive; negative”. Besides, the mutagenic call was “inactive; negative” (Test System: E. COLI, Strain/Indicator: WP2UVRA, Metabolic Activation: NONE, Method: PREINCUBATION) and “inactive; negative” (Test System: E. COLI, Strain/Indicator: WP2UVRA, Metabolic Activation: RAT, LIVER, S-9, PHENOBARBITAL AND BETA-NAPHTHOFLAVONE, Method: PREINCUBATION).

On to `C=CC(=O)OCC(C)(C)C`, for which the mutagenic call (Test System: AMES SALMONELLA TYPHIMURIUM, Strain/Indicator: TA98, Metabolic Activation: NONE, Method: STANDARD PLATE) was “inactive; negative”; the mutagenic call (Test System: AMES SALMONELLA TYPHIMURIUM, Strain/Indicator: TA98, Metabolic Activation: RAT, LIVER, S-9, AROCLOR 1254, Method: STANDARD PLATE) was “inactive; negative”; the mutagenic call (Test System: AMES SALMONELLA TYPHIMURIUM, Strain/Indicator: TA98, Metabolic Activation: RAT, LIVER, S-9, SODIUM PHENOBARBITAL, Method: STANDARD PLATE) was “inactive; negative”; the mutagenic call (Test System: AMES SALMONELLA TYPHIMURIUM, Strain/Indicator: TA100, Metabolic Activation: NONE, Method: STANDARD PLATE) was “inactive; negative”; the mutagenic call (Test System: AMES SALMONELLA TYPHIMURIUM, Strain/Indicator: TA100, Metabolic Activation: RAT, LIVER, S-9, AROCLOR 1254, Method: STANDARD PLATE) was “inactive; negative”; the mutagenic call (Test System: AMES SALMONELLA TYPHIMURIUM, Strain/Indicator: TA100, Metabolic Activation: RAT, LIVER, S-9, SODIUM PHENOBARBITAL, Method: STANDARD PLATE) was “inactive; negative”. The mutagenic call (Test System: AMES SALMONELLA TYPHIMURIUM, Strain/Indicator: TA1535, Metabolic Activation: NONE, Method: STANDARD PLATE) was “inactive; negative”; the mutagenic call (Test System: AMES SALMONELLA TYPHIMURIUM, Strain/Indicator: TA1535, Metabolic Activation: RAT, LIVER, S-9, AROCLOR 1254, Method: STANDARD PLATE) is “inactive; negative”; the mutagenic call (Test System: AMES SALMONELLA TYPHIMURIUM, Strain/Indicator: TA1535, Metabolic Activation: RAT, LIVER, S-9, SODIUM PHENOBARBITAL, Method: STANDARD PLATE) was “inactive; negative”; the mutagenic call under setting [1] is “inactive; negative”; the mutagenic call (Test System: AMES SALMONELLA TYPHIMURIUM, Strain/Indicator: TA1537, Metabolic Activation: RAT, LIVER, S-9, AROCLOR 1254, Method: STANDARD PLATE) is “inactive; negative”; the mutagenic call (Test System: AMES SALMONELLA TYPHIMURIUM, Strain/Indicator: TA1537, Metabolic Activation: RAT, LIVER, S-9, SODIUM PHENOBARBITAL, Method: STANDARD PLATE) is “inactive; negative”. The mutagenic call is “inactive; negative” (Test System: AMES SALMONELLA TYPHIMURIUM, Strain/Indicator: TA1538, Metabolic Activation: NONE, Method: STANDARD PLATE); “inactive; negative” (Test System: AMES SALMONELLA TYPHIMURIUM, Strain/Indicator: TA1538, Metabolic Activation: RAT, LIVER, S-9, AROCLOR 1254, Method: STANDARD PLATE); “inactive; negative” (Test System: AMES SALMONELLA TYPHIMURIUM, Strain/Indicator: TA1538, Metabolic Activation: RAT, LIVER, S-9, SODIUM PHENOBARBITAL, Method: STANDARD PLATE).

`CN(C)CCNC(=O)c1cc2ccccc2c2cccnc12`: under setting [1], the mutagenic call is “active; positive”.
